Source: patent publication US10640507B2, “PBD antibacterial agents” (KING'S COLLEGE LONDON, priority 2015, dated 2020)
In brackets after ≈: the same amount, converted by molar mass. Read-outs that look alike come from different tables or passages of the source.

Columns and labels:
A. baumannii NCTC 13302 = experiment: General MIC protocol, Gram negative; assay type: cell-based; conditions: Acinetobacter baumannii, NCTC13302
Outline: (§1)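 TSB cultures at 5×10^5/ml exposed to halving compound concentrations (32 μg/ml highest final); 20 h incubation at 37° C, growth measured at 600 nm.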

A. baumannii UKA2 = experiment: General MIC protocol, Gram negative; assay type: cell-based; conditions: Acinetobacter baumannii
Outline: as §1

B. cenocepa K56-2 = experiment: General MIC protocol, Gram negative; assay type: cell-based
Outline: as §1

K. pneumonia - M6 = experiment: Time kill kinetics; assay type: cell-based; conditions: drug at 4×MIC
Experimental: 1. Grow bacteria overnight.
2. Subculture into an autoclaved conical flask containing 10 ml of TSB to an OD of 0.01 (˜1×10^7 Cfu/ml for KP-M6).
4. Take aliquots (100 μl) at timepoints (0, 1, 2, 4, 6, 24 hours) and carry out a serial dilution in PBS (to remove drug and to dilute bacteria to countable numbers).
5. Use the serial dilution to perform a Miles Misra—i.e. Add 3×10 μl spots of each dilution onto an agar plate. Incubate overnight and count colonies on spots in the morning.
6. Control: Subculture bacteria alongside samples but with no antibiotic added. Take aliquots from this at every time point (0, 1, 2, 4, 6, 24 hours) and perform Miles Misra on these too (as detailed in points 4 and 5 above).
7. After the first experiment, if the counts seen on Miles-Misra were zero, total viable counts were determined by spreading 200 μl in a streak down the centre of a TSB agar plate, waiting for the liquid to be absorbed and then spreading over the plate and checking for growth inhibition at the sight of the original streak.
8. The compound is considered bactericidal if the inoculum was reduced >3 log10 CFU/ml and bacteriostatic if inoculum was reduced by 0-3 log10 CFU/ml.
Three measurements were taken for each compound at each time point. These measurements were averaged and the standard deviation was also calculated.

NCTC 13438 = experiment: Effect of efflux pump inhibitors (EPIs) on MIC; assay type: cell-based, K. pneumoniae; conditions: for MIC: Klebsiella pneumoniae
Experimental: (§2) 1. Grow up cultures of bacterial strains to be tested overnight.
(§3) 2. Dilute down overnight cultures to concentration of 1×10^6 bacteria/ml (OD0.01) in Tryptic soy broth (TSB).
(§4) 3. Add 100 μl of TSB media to column 2-column 12 in 96 well plate (keeping column 1 clear).
4. Make up compound to a concentration of 64 μg/ml in water.
(§5) 5. Add 100 μl of antibiotic solution to the 1st and 2nd columns.
6. Using a multichannel pipette take 100 μl from the 2nd column wells and pipette into 3rd column wells and repeat down the 96 well plate (remember to include controls i.e. uninfected media and media with no antibiotic).
7. To each well (except uninfected control row H) add 50 μl/well of EPI at 4× final concentration in TSB.
9. In wells used to test the effect of the EPI carbonyl cyanide 3-chlorophenylhydrazone (CCCP) the CCCP is added at 10 μg/ml final concentration.
10. In wells used to test the effect of the EPI phenylalanine-arginine β-naphthylamide (PABN) the PABN is added at 25 μg/ml final concentration.
11. In wells used to test the effect of the PABN+Mg, the PABN is added at 25 μg/ml final concentration, with 1 mM MgSO4 in TSB.
12. Wrap plate with parafilm to prevent evaporation.
13. Leave at desired temperature (37° C. unless specified elsewhere) for 20 hours.
14. Next day check plates for growth and measure optical density (i.e. absorbance) at a wavelength of 600 nm (OD600).
Compound KMR-14-33 was tested against a range of bacterial species using the above protocol. Compound PP-A148 was also tested against a more limited range of bacterial species using the above protocol. For KMR-14-33 measurements were carried out for the compound alone, for the compound plus CCCP, for the compound plus PABN and for the compound plus PABN and plus Mg. For PP-A148 measurements were carried out for the compound alone and for the compound plus PABN.

Klebsiella KP 342 = experiment: General MIC protocol, Gram negative; assay type: cell-based; conditions: Klebsiella, KP342
Experimental: (§6) General Minimum Inhibitory Concentration (MIC) Protocol
as §2, §3, §4
(§7) 4. Make up compound to a concentration of 64 μg/ml in water (or alternatively to twice the chosen maximum concentration to be tested).
as §5
(§8) 6. Using a multichannel pipette take 100 μl from the 2nd column wells and pipette into 3rd column wells and repeat down the 96 well plate (remembering to include controls i.e. uninfected media and media with no antibiotic).
(§9) 7. To each well (except uninfected control row H) add 100 μl of bacterially infected media at a concentration of 1×10^6/ml.
(§10) 8. This dilutes down the concentration of the antibiotic by half (top dose is therefore 32 μg/ml in column 1) and also gives you a starting bacterial concentration of 5×10^5/ml.
(§11) 9. Wrap plate with parafilm to prevent evaporation.
(§12) 10. Leave at desired temperature (37° C. unless specified elsewhere) for 20 hours.
(§13) 11. Next day check plates for growth and measure optical density (i.e. absorbance) at a wavelength of 600 nm (OD600).
(§14) An example of such a plate is shown in FIG. 1 where column A represents wells that receive the top dose 100 μl; column B represents wells that receive the top dose 100 μl+100 μl TSB; and column C represents wells that receive 100 μl TSB. Row H which is marked by a box labelled D represents a blank where the cells receive no bacteria.
The minimum inhibitory concentration (MIC) was measured using the general MIC protocol given above.

[1] = tested on: resistant mutants of KP 13368; experiment: MIC following resistance development; assay type: cell-based, Klebsiella; conditions: Klebsiella, OFKP13368, read-out: MIC of resistant mutants (in brackets)
Experimental: as §6, §2, §3, §4, §7, §5, §8, §9, §10, §11, §12, §13, §14
(§15) The MIC of PP-A418 and colistin against the strains used in the time kill analysis of Example 31 following resistance development were measured. The MIC was measured using the general MIC protocol given above. The results are given in Table 14 below where the MIC values of resistant mutants are shown in the brackets.

[2] = tested on: resistant mutants of KP 13438; experiment: MIC following resistance development; assay type: cell-based, Klebsiella; conditions: Klebsiella, OFKP13438, read-out: MIC of resistant mutants (in brackets)
Experimental: as §6, §2, §3, §4, §7, §5, §8, §9, §10, §11, §12, §13, §14, §15

[3] = tested on: resistant mutants of KP 16; experiment: MIC following resistance development; assay type: cell-based, Klebsiella; conditions: Klebsiella, OFKP16, read-out: MIC of resistant mutants (in brackets)
Experimental: as §6, §2, §3, §4, §7, §5, §8, §9, §10, §11, §12, §13, §14, §15

## COc1cc2c(cc1OCCCC(=O)Nc1cc(C(=O)Nc3ccc4sc(C(=O)N(C)C)cc4c3)n(C)c1)N=C[C@@H]1CCCN1C2=O [KMR-14-33, (S)—N-(2-(dimethylcarbamoyl)benzo[b]thiophen-5-yl)-4-(4-((7-methoxy-5-oxo-2,3,5,11a-tetrahydro-1H-benzo[e]pyrrolo[1,2-a][1,4]-diazepin-8-yl)oxy)butanamido)-1-methyl-1H-pyrrole-2-carboxamide]
A. baumannii NCTC 13302
  MIC: 0.25 µg/mL (≈ 0.381 µM)
A. baumannii UKA2
  MIC: 0.5 µg/mL (≈ 0.761 µM)
B. cenocepa K56-2
  MIC: 2 µg/mL (≈ 3.05 µM)
K. pneumonia - M6; time-point 1 hours
  Average (Log CFU/ml): 2667 CFU/ml
  n = 1 (Log CFU/ml): 3000 CFU/ml
  n = 2 (Log CFU/ml): 3000 CFU/ml
  n = 3 (Log CFU/ml): 2000 CFU/ml
K. pneumonia - M6; time-point 2 hours
  Average (Log CFU/ml): 0 CFU/ml
  n = 2 (Log CFU/ml): 0 CFU/ml
  n = 3 (Log CFU/ml): 0 CFU/ml
  viable count: 0 CFU/mL
K. pneumonia - M6; time-point 4 hours
  Average (Log CFU/ml): 0 CFU/ml
  n = 2 (Log CFU/ml): 0 CFU/ml
  n = 3 (Log CFU/ml): 0 CFU/ml
  viable count: 0 CFU/mL
K. pneumonia - M6; time-point 6 hours
  Average (Log CFU/ml): 0 CFU/ml
  n = 2 (Log CFU/ml): 0 CFU/ml
  n = 3 (Log CFU/ml): 0 CFU/ml
  viable count: 0 CFU/mL
K. pneumonia - M6; time-point 24 hours
  Average (Log CFU/ml): 0 CFU/ml
  n = 2 (Log CFU/ml): 0 CFU/ml
  n = 3 (Log CFU/ml): 0 CFU/ml
  viable count: 0 CFU/mL
NCTC 13438; NCTC13438, read-out: +CCCP MIC
  MIC: 0.5 µg/mL (≈ 0.761 µM)
NCTC 13438; NCTC13438, read-out: Control with no EPI MIC
  MIC: 0.5 µg/mL (≈ 0.761 µM)
NCTC 13438; NCTC 13438, PABN at 25 μg/ml
  +PABN MIC: 0.125 µg/mL
NCTC 13438; NCTC 13438, PABN at 25 μg/ml with 1 mM MgSO4
  +PABN + Mg MIC: 0.25 µg/mL

## COc1cc2c(cc1OCCCC(=O)Nc1cc(C(=O)Nc3ccc4oc(C(=O)N5CCSCC5)cc4c3)n(C)c1)N=C[C@@H]1CCCN1C2=O [PP-A148, (S)-4-(4-((7-methoxy-5-oxo-2,3,5,11a-tetrahydro-1H-benzo-[e]pyrrolo[1,2-a][1,4]diazepin-8-yl)oxy)butanamido)-1-methyl-N-(2-(thiomorpholine-4-carbonyl)benzofuran-5-yl)-1H-pyrrole-2-carboxamide]
Klebsiella KP 342
  MIC: 4 to 8 µg/mL (≈ 5.72 to 11.4 µM)
[1]
  MIC: > 128 µg/mL
[2]
  MIC: 64 µg/mL
[3]
  MIC: 4 to 8 µg/mL
